Laboratory results: patent publication US9000015B2, “Compounds for the treatment of addiction” (Gilead Sciences, Inc., priority 2011, dated 2015)

Columns and labels:
recombinant human ALDH2 = recombinant human ALDH2 (Homo sapiens (Human), UniProt P05091); experiment: ALDH2 assay (NADH formation); assay type: biochemical; details: 60 min pre-incubation, 150 uM formaldehyde, 2.5 mM NAD+; read-out: IC50 HALDH2
Experimental: Standard ALDH2 reaction mixtures contained 150 uM formaldehyde, 2.5 mM NAD^+, 10 mM MgCl2 and 10 nM recombinant human ALDH2 in 50 mM Hepes buffer, pH 7.4, 0.01% Tween 20 in a final volume of 50 ul using 384-well plates. After 60 min of pre-incubation of compound with ALDH2 and formaldehyde, the reaction was started by adding NAD+ and the reaction mixture was allowed to proceed for 90 minutes. Activity of the enzyme was determined by monitoring NADH formation using Perkin-Elmer Envision Reader with excitation and emission wavelengths set at 340 and 460 nm, respectively.
(§1) Note: […] refers to the concentration of a compound that inhibits a reaction by 50%. In the case of competitive inhibition, IC50=2Ki when the substrate is present at the Km concentration, as per the relationship: Ki=IC50/[1+(substrate concentration/Km)].

HMAO-A = HMAO-A (Homo sapiens (Human), UniProt P21397); experiment: MAO-A assay (luminogenic MAO substrate); assay type: biochemical; details: microsome MAO-A, 160 uM substrate
Experimental: (§2) MAO assays included luminogenic MAO substrate, reaction buffers, Luciferin Detection and the reconstitution buffer with eserase. Standard MAO reaction mixtures included microsome contained MAO-A (2 ug) or MAO-B (10 ug), 160 uM substrate for MAO-A or 16 uM substrate for MAO-B, MAO-A buffer (100 mM Hepes buffer, pH 7.5, 5% glycerol) or MAO-B buffer (100 mM Hepes, pH 7.5, 5% glycerol, 10% dimethyl sulfoxide) in a final volume of 30 ul. After 20 minutes of pre-incubation of the enzyme with compounds, the reaction was initiated by adding enzyme substrate and the reaction was allowed to proceed for 60 minutes. Reconstituted Luciferin Detection Reagent (30 ul) was then added is added to simultaneously stop the MAO reaction and convert the methyl ester derivative to luciferin and produce light. The amount of light produced is directly proportional to the activity of MAO. The mixtures were further incubated for 20 minutes and activity of the enzyme was determined using Perkin-Elmer Envision Reader.
as §1

HMAO-B = HMAO-B (Homo sapiens (Human), UniProt P27338); experiment: MAO-B assay (luminogenic MAO substrate); assay type: biochemical; details: microsome MAO-B, 16 uM substrate
Experimental: as §2, §1

[1] = tested on: Alcohol-preferring (iP) male rats; experiment: Rat alcohol self administration; assay type: in vivo; details: 1 hr before session, vs vehicle
Text: Alcohol-preferring (iP) male rats were trained to daily (Monday to Friday) self-administer alcohol (10% v/v) under operant conditions. A fixed-ratio of 3 (FR3), where rats had to press a lever 3 times to get one drop of alcohol during 20-min sessions was used (Cowen et al, 2005a; Cowen et al., 2005b; Lawrence et al., 2006). Availability of alcohol was conditioned by the presence of an olfactory cue (2 drops of vanilla essence, placed on the bedding of the operant chamber directly under the active lever), plus a 1-sec light stimulus when FR3 was obtained. For each session, total alcohol and water responses were recorded. Following acquisition of lever pressing behavior and stable alcohol self-administration, rats were administered oral vehicle or compound of Example 5 (5, 10 and 30 mg-eq/kg) 1 hr before each session in a counterbalanced order. Every rat received all drug doses and vehicle once per week in a randomly assigned order.

[2] = tested on: male Sprague Dawley (SD) rats; experiment: Rat cocaine cue reinstatement; assay type: in vivo; details: for inhibition of cocaine cue reinstatement compared to vehicle: 1 hr before session
Experimental: Training of male Sprague Dawley (SD) rats had 3 separate stages. First, during self administration, animals were trained to lever press for cocaine with presentation of concomitant cues associated with drug delivery. Rats that reached criteria for addiction were included in the study. Afterward, during cue extinction, cocaine-cue dependent behavior was extinguished. Lastly, during cocaine cue reinstatement, the effect of compounds was tested on lever presses upon cue presentation (FIG. 2).
Rats were trained to self administer i.v. cocaine (0.35 mg/kg/injection) daily (Monday to Friday) in standard operant chambers with retractable levers (Coulbourn Instruments, PA). During the daily 2 hr session, rats received a 0.05 ml infusion of 0.35 mg/kg cocaine every time the active lever was pressed. A cue light and tone turned on for 2 sec together with activation of a pump that delivered the cocaine solution. Rats were required to maintain an infusion rate of ≧20+ per day for at least 10 days before being moved to extinction training.
During extinction sessions lever presses no longer produced cocaine infusion and cue light/tone presentation was absent. Rats received a maximum of 15 extinction sessions.
On the next day after reaching extinction criteria, rats were treated orally with vehicle (Formulation 2B: 25% PEG400/5% Vit E TPGS/1% SLS/69% water with 0.5% Methocel) or drug (compound of Example 2 or compound of Example 5) before the cue reinstatement session. Cue reinstatement began with a tone and cue light. This 2 hr session was identical to the self-administration session (cue light and tone present upon active lever press) except that no cocaine was delivered. The number of active lever presses was compared to extinction lever responding. This is considered a measure of reinstatement. The next day, rats were returned to extinction sessions for at least 2 or 3 more sessions. Rats then received a second and last reinstatement session with an opposite treatment to the one received on the first reinstatement session (vehicle or drug treatment). […] The light/tone presentation triggers this response and it is interpreted as a measure of reinstatement even though cocaine is not available.

Male SD rats [3] = experiment: Rat nicotine self administration, acute treatment; assay type: in vivo; details: independent groups
Experimental: (§3) Male SD rats were trained to self administer i.v. nicotine (0.03 mg/kg/inj) daily (Monday to Friday) in standard operant chambers with retractable levers (MED Associates, Inc) as previously published (Levin et al., 2003; Levin et al., 2007). During the daily 45 min session, rats received 0.05 ml infusion of 0.03 mg/kg/infusion of nicotine every time the active lever was pressed. A cue light and tone turned on for 0.5 sec together with the activation of a pump that delivered the nicotine solution. Daily sessions were run for at least 10 days before the initiation of drug testing. Solutions of compounds of Example 2 and Example 5 were prepared fresh daily in Formulation 2B: 25% PEG400/5% Vit E TPGS/1% SLS/69% water with 0.5% Methocel) for oral dosing. Compound of Example 2 doses were administered in a counterbalanced design for testing 1 hr before each nicotine session. Every rat received all drug doses and vehicle in a randomly assigned order. The oral drug administrations were made twice per week.
Compound of Example 5 was tested in a study using 4 independent groups. Each group received either oral vehicle or 1 of the 3 doses of compound of Example 5 (5, 10 or 30 mg-eq/kg). […] The 5 mg/kg dose was ineffective.

Male SD rats [4] = experiment: Rat nicotine self administration, 7-day chronic treatment; assay type: in vivo
Experimental: as §3
Upon completion of the acute compound of Example 5 treatment study, the same animals were used to test the effect of 7-day chronic oral administration of compound of Example 5 in the nicotine self administration model. Rats were treated orally with compound of Example 5 (5, 10 or 30 mg-eq/kg) or vehicle 1 hr before nicotine self administration session for 7 consecutive days. […] Similar to the acute treatment, the 5 mg-eq/kg dose was ineffective (FIG. 7). […] Animals in nicotine self administration studies had to reach pre defined criteria (e.g. rat strain, minimum number of nicotine infusions, consistent baseline nicotine self administration throughout the study, patent iv catheters, etc.) to be included in analysis.

Chain of HMAO-B (P27338 whole entry): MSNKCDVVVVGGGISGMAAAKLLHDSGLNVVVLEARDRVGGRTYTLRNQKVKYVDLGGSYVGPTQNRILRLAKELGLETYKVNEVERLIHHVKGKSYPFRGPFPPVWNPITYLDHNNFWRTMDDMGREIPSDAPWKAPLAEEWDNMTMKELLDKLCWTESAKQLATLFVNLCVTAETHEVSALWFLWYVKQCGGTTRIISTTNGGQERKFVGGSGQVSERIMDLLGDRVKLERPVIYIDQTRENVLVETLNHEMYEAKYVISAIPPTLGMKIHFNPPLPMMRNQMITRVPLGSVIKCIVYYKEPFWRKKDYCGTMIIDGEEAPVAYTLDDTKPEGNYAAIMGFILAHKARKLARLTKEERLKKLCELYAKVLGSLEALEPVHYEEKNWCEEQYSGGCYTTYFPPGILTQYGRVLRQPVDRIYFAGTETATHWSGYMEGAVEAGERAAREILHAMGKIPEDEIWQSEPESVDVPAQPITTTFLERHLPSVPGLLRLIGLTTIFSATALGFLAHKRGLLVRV
Chain of HMAO-A (P21397 whole entry): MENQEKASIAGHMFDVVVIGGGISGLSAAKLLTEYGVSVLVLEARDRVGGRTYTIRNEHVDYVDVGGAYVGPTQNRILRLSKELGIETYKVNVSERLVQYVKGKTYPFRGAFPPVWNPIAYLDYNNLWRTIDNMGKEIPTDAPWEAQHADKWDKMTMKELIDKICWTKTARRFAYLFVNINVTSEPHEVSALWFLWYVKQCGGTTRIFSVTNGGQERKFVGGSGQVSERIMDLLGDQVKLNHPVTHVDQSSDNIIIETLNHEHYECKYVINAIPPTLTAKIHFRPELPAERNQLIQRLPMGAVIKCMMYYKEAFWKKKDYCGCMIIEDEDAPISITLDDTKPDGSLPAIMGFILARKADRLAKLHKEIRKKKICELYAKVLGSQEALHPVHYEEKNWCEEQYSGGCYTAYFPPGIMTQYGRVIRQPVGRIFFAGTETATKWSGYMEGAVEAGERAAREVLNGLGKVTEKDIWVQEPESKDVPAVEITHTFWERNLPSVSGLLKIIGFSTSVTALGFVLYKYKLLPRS
Chain of recombinant human ALDH2 (P05091 18-517): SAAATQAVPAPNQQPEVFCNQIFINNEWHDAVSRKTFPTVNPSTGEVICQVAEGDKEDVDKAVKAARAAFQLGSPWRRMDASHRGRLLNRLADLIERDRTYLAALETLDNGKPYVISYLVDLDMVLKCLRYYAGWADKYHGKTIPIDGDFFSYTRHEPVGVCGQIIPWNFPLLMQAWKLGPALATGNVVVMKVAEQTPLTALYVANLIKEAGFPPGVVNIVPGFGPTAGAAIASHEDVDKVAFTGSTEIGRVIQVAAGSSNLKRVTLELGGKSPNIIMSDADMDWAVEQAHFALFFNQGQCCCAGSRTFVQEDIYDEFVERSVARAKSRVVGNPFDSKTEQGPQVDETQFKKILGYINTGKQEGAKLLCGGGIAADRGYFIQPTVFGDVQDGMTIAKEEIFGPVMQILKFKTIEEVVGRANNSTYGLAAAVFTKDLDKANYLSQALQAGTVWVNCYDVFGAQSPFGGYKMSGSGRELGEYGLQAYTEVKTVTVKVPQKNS

O=C(NCc1ccc(-c2ccn(COP(=O)(O)O)c(=O)c2)cc1)c1c(Cl)cccc1Cl [Compound 14, phosphoric acid mono-(4-{4-[(2,6-dichloro-benzoylamino)-methyl]-phenyl}-2-oxo-2H-pyridin-1-ylmethyl) ester]
IC50 (recombinant human ALDH2): > 10 µM
IC50 (HMAO-A): > 130 µM
IC50 (HMAO-B): > 130 µM
number of lever presses for alcohol ([1]; 10 mg-eq/kg oral): significantly decreased
number of lever presses for alcohol ([1]; 30 mg-eq/kg oral): significantly decreased
inhibition of cocaine cue reinstatement compared to vehicle ([2]; 2.5 mg-eq/kg oral, p>0.05, N.S.): 30%
effect on cocaine cue reinstatement versus vehicle ([2]; 2.5 mg-eq/kg oral, lowest dose tested): not significantly different from vehicle
inhibition of cocaine cue reinstatement compared to vehicle ([2]; 5 mg-eq/kg oral): 59%
inhibition of cocaine cue reinstatement compared to vehicle ([2]; 10 mg-eq/kg oral): 55%
inhibition of cocaine cue reinstatement compared to vehicle ([2]; 30 mg-eq/kg oral): 50%
effect on number of nicotine infusions compared to vehicle (Male SD rats [3]; 5 mg-eq/kg oral): ineffective
inhibition of number of nicotine infusions compared to vehicle (Male SD rats [3]; 10 mg-eq/kg oral): 51%
inhibition of number of nicotine infusions compared to vehicle (Male SD rats [3]; 30 mg-eq/kg oral): 68%
effect on number of nicotine infusions compared to vehicle (Male SD rats [4]; 5 mg-eq/kg oral, 7 consecutive days): ineffective
inhibition of number of nicotine infusions compared to vehicle (Male SD rats [4]; 10 mg-eq/kg oral, 7 consecutive days): 48%
inhibition of number of nicotine infusions compared to vehicle (Male SD rats [4]; 30 mg-eq/kg oral, 7 consecutive days): 62%
tolerance to the therapeutic effect (Male SD rats [4]; 7-day chronic oral administration, data not shown): no development of tolerance
